Counter-ions that a name gives are not always drawn.
What was measured:
primary rat microglia [1] = assay: Cell toxicity (dead cells, size <150 μm2) in LPS assay; conditions: primary microglia HTS, LPS stimulation; decreased size (<150 μm^2) as marker of toxicity
primary rat microglia [2] = assay: Cell toxicity (dead cells, size <150 μm2) in coated fibrin (cFib) assay; conditions: primary microglia HTS, fibrin stimulation; decreased size (<150 μm^2) as marker of toxicity;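 also: share of dead cells sized under 150 µm2 at 10 µM in fibrin-stimulated microglia HTS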
[3] = system: fibrin- and LPS-induced microglia activation; assay: cells; type: cell-based, rat; conditions: quadrant by fibrin and LPS inhibition in HTS of 1907 compounds
[4] = system: fibrin-induced microglia activation; assay: Image-based assay of fibrin-induced microglia activation (HTS and dose response); type: cell-based, rat; conditions: primary microglia HTS, fibrin stimulation, increased cell size (>800 μm^2) as marker of activation; for inhibition at 10 µM: Rattus norvegicus, Microglia, read-out: Fibrin % inhibition
[5] = system: LPS-induced microglia activation; assay: Image-based assay of LPS-induced microglia activation (HTS and dose response); type: cell-based, rat; conditions: primary microglia HTS, LPS stimulation, increased cell size (>800 μm^2) as marker of activation; for inhibition at 10 µM: Rattus norvegicus, Microglia, 48 h, read-out: LPS % inhibition

Compound	LPS % cell toxicity (primary rat microglia [1]) [%]	Fibrin % cell toxicity (primary rat microglia [2]) [%]	Quadrant (FIG. 5b) [3]	inhibition at 10 µM [4] [%]	inhibition at 10 µM [5] [%]	Fibrin % inhibition [4] [%]	LPS % inhibition [5] [%]
Nc1ccc(O)c(C(=O)O)c1 [Mesalazine]	0	1	Q4	9	19	–	–
O=S(=O)(O)CCS [Mesna]	0	1	Q4	18	5	–	–
CC(=O)Oc1cccc(C)c1 [Meta-cresyl Acetate]	0	1	Q4	-7	-3	–	–
Cc1cc(C)cc(OCC2CNC(=O)O2)c1 (stereo not shown) [Metaxalone]	0	1	Q4	13	6	–	–
CN1C[C@H](CNC(=O)OCc2ccccc2)C[C@@H]2c3cccc4c3c(cn4C)C[C@H]21 [Metergoline]	0	1	Q4	-12	16	–	–
CC(=O)OC(C)C[N+](C)(C)C (stereo not shown) [Methacholine]	0	1	Q4	2	9	–	–
C=C1c2cccc(O)c2C(=O)C2=C(O)[C@]3(O)C(=O)C(C(N)=O)=C(O)[C@@H](N(C)C)[C@@H]3[C@@H](O)[C@H]12 [Methacycline]	0	0	Q4	-10	11	–	–
COc1ccccc1OCC(O)COC(N)=O (stereo not shown) [Methocarbamol]	0	0	Q4	4	10	–	–
COc1ccc(OC)c(C(O)C(C)N)c1 (stereo not shown) [Methoxamine]	0	1	Q4	3	1	–	–
CN1C(=O)CC(C)(c2ccccc2)C1=O (stereo not shown) [Methsuximide]	0	0	Q4	-39	19	–	–
CN1C(CCl)Nc2cc(Cl)c(S(N)(=O)=O)cc2S1(=O)=O (stereo not shown) [Methyclothiazide]	0	1	Q4	25	17	–	–
C[N+]1(C)[C@@H]2CC[C@H]1C[C@@H](OC(=O)C(CO)c1ccccc1)C2 (stereo partly shown) [Methylatropine Nitrate]	0	1	Q4	-2	14	–	–
C[C@]12CCC(=O)C=C1CC[C@@H]1[C@@H]2CC[C@@]2(C)[C@H]1CC[C@]2(C)O [Methyltestosterone]	0	1	Q4	-40	-2	–	–
Cc1cc(=O)[nH]c(=S)[nH]1 [Methylthiouracil]	0	0	Q4	31	16	–	–
COc1cccc(OC)c1C(=O)N[C@@H]1C(=O)N2[C@@H]1SC(C)(C)[C@@H]2C(=O)O [Meticillin]	0	0	Q4	-19	18	–	–
Cc1cc2c(cc1S(N)(=O)=O)S(=O)(=O)CCC2 [Meticrane]	0	0	Q4	-33	9	–	–
CCN(CC)CCNC(=O)c1cc(Cl)c(N)cc1OC [Metoclopramide]	0	1	Q4	-2	12	–	–
Cc1ccccc1N1C(=O)c2cc(S(N)(=O)=O)c(Cl)cc2NC1C (stereo not shown) [Metolazone]	0	1	Q4	-2	19	–	–
COCCc1ccc(OCC(O)CNC(C)C)cc1 (stereo not shown) [Metoprolol]	0	1	Q4	4	22	–	–

Compound	LPS % cell toxicity (primary rat microglia [1]) [%]	Fibrin % cell toxicity (primary rat microglia [2]) [%]	Quadrant (FIG. 5b) [3]	inhibition at 10 µM [4] [%]	inhibition at 10 µM [5] [%]	Fibrin % inhibition [4] [%]	LPS % inhibition [5] [%]
COP(=O)(OC)C(O)C(Cl)(Cl)Cl (stereo not shown) [Metrifonate]	0	0	Q4	-34	8	–	–
COc1ccc(C(=O)c2ccc(C)cc2)c(O)c1 [Mexeneone]	0	1	Q4	–	–	−8	9
OCCN1C[C@H](O)[C@@H](O)[C@H](O)[C@H]1CO [Miglitol]	0	0	Q4	-9	13	–	–
CCCCN1C[C@H](O)[C@@H](O)[C@H](O)[C@H]1CO [Miglustat]	0	1	Q4	-6	0	–	–
CCCCCCCCCCCCCCCCOP(=O)([O-])OCC[N+](C)(C)C [Miltefosine]	0	1	Q4	-31	11	–	–
Cc1cc(-c2ccccc2)nnc1NCCN1CCOCC1 [Minaprine]	0	0	Q4	-22	10	–	–
O=C(NCCN1CCOCC1)c1ccc(Cl)cc1 [Moclobemide]	0	1	Q4	-6	14	–	–
NC(=O)C[S+]([O-])C(c1ccccc1)c1ccccc1 (stereo not shown) [Modafinil]	0	1	Q4	-5	25	–	–
CCOC(=O)[C@H](CCc1ccccc1)N[C@@H](C)C(=O)N1Cc2cc(OC)c(OC)cc2C[C@H]1C(=O)O [Moexipril]	1	1	Q4	-29	9	–	–
CCOC(=O)CC(=O)N1CCSC1COc1ccccc1OC (stereo not shown) [Moguisteine]	0	1	Q4	-2	15	–	–
Oc1ccc(OCc2ccccc2)cc1 [Monobenzone]	0	1	Q4	7	16	–	–
Cc1ccsc1/C=C/C1=NCCCN1C [Morantel Citrate]	0	1	Q4	-11	11	–	–
N=C(N)/N=C(\N)N1CCOCC1 [Moroxydine Hydrochloride]	0	1	Q4	-22	4	–	–
CO/N=C1\C[C@]2(C[C@@H]3C[C@@H](C/C=C(\C)C[C@@H](C)/C=C/C=C4\CO[C@@H]5[C@H](O)C(C)=C[C@@H](C(=O)O3)[C@]45O)O2)O[C@H](/C(C)=C/C(C)C)[C@H]1C [Moxidectin]	1	0	Q4	1	14	–	–
CC(=O)Oc1cc(C(C)C)c(OCCN(C)C)cc1C [Moxisylyte]	0	0	Q4	-22	3	–	–
C/C(=C\C(=O)OCCCCCCCCC(=O)O)C[C@@H]1OC[C@H](C[C@@H]2O[C@H]2[C@@H](C)[C@H](C)O)[C@@H](O)[C@H]1O [Mupirocin]	0	1	Q4	11	20	–	–
CC(=O)N[C@H]1[C@H]([C@H](O)[C@H](O)CO)OC(O)(C(=O)O)C[C@@H]1O (stereo partly shown) [N-acetylneuramic Acid, Aceneuramic Acid]	1	1	Q4	–	–	−9	19
COc1ccc2cc(CCC(C)=O)ccc2c1 [Nabumetone]	0	1	Q4	-13	15	–	–
NC(=O)c1ccc[n+]([C@@H]2O[C@H](COP(=O)([O-])OP(=O)(O)OC[C@H]3O[C@@H](n4cnc5c(N)ncnc54)[C@H](O)[C@@H]3O)[C@@H](O)[C@H]2O)c1 [Nadide]	0	1	Q4	-14	5	–	–

Reference: patent publication US20210330611A1, “THERAPY FOR NEUROLOGICAL DISEASES/DISORDERS” (priority 2020, published 2021)
